# According to patent publication US8742110B2, “Spiroxazolidinone compounds” (Merck Sharp & Dohme Corp., priority 2010, dated 2014):
# Counter-ions that a name gives are not always drawn.
# Biological target: SSTR5 (Homo sapiens (Human), UniProt P35346)
# Assay: SSTR5 binding assay
# Conditions: CHO-K1 membranes expressing cloned human SSTR5
# How it was run: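 Competition binding on membranes from CHO-K1 cells stably expressing cloned human receptor, using radiolabeled somatostatin in 50 mM Tris-HCl pH 7.8 with EGTA, MgCl2 and protease inhibitors. Unlabeled compounds tested from 0.01 nM to 10,000 nM.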
# Sequence of SSTR5 (P35346 whole entry): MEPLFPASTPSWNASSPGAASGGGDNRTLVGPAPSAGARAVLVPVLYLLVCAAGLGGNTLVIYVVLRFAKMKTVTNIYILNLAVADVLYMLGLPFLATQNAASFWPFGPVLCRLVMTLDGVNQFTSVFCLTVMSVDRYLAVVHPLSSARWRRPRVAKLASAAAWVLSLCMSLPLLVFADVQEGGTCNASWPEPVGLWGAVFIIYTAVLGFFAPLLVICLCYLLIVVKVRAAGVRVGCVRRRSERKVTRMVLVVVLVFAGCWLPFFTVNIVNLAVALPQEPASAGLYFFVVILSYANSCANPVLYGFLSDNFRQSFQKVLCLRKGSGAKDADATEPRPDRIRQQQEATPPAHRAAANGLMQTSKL
row,SMILES,IC50
1,"CC(C)n1cc(CN2CCC3(CC2)CN(c2ccc(C(=O)O)cc2)C(=O)O3)c(-c2ccc(F)c(F)c2F)n1 [Example 1-17, 4-(2-Oxo-8-{[1-(propan-2-yl)-3-(2,3,4-trifluorophenyl)-1H-pyrazol-4-yl]methyl}-1-oxa-3,8-diazaspiro[4.5]dec-3-yl)benzoic acid, TFA salt]",2.14 nM
2,"COc1ccc2c(CN3CCC4(CC3)CN(c3ccc(C(=O)O)cc3)C(=O)O4)nn(C(C)C)c2c1 [Example 6-6, 4-(8-{[6-Methoxy-1-(propan-2-yl)-1H-indazol-3-yl]methyl}-2-oxo-1-oxa-3,8-diazaspiro[4.5]dec-3-yl)benzoic acid, TFA salt]",68.1 nM
3,"CCOc1cc(CN2CCC3(CC2)CN(c2ccc(O)nc2)C(=O)O3)cc(OCC)c1-c1ccc(F)cc1 [Example 3-13, 8-[(2,6-Diethoxy-4-fluorobiphenyl-4-yl)methyl]-3-(6-hydroxypyridin-3-yl)-1-oxa-3,8-diazaspiro[4.5]decan-2-one, TFA salt]",3.8 nM
4,"CCCn1nc(Cc2cc(F)c(F)cc2F)c(CN2CCC3(CC2)CN(c2ccc(C(=O)O)cc2)C(=O)O3)c1Cl [Example 1-46, 4-(8-{[5-Chloro-1-propyl-3-(2,4,5-trifluorobenzyl)-1H-pyrazol-4-yl]methyl}-2-oxo-1-oxa-3,8-diazaspiro[4.5]dec-3-yl)benzoic acid, TFA salt]",40.9 nM
5,"COc1ccc2c(CN3CCC4(CC3)CN(c3ccc(C(=O)O)cc3)C(=O)O4)nn(CC(=O)C(C)(C)C)c2c1 [Example 6-15, 4-(8-{[1-(3,3-Dimethyl-2-oxobutyl)-6-methoxy-1H-indazol-3-yl]methyl}-2-oxo-1-oxa-3,8-diazaspiro[4.5]dec-3-yl)benzoic acid, TFA salt]",1200 nM
6,"COc1ccc2c(CN3CCC4(CC3)CN(c3ccc(C(=O)O)cc3)C(=O)O4)cn(C)c2c1 [Example 6-19, 4-{8-[(6-Methoxy-1-methyl-1H-indol-3-yl)methyl]-2-oxo-1-oxa-3,8-diazaspiro[4.5]dec-3-yl}benzoic acid, TFA salt]",6.79 nM
7,"COc1cccc(-c2nn(-c3ccccc3)cc2CN2CCC3(CC2)CN(c2ccc(C(=O)O)cc2)C(=O)O3)c1 [Example 1-22, 4-(8-{[3-(3-Methoxyphenyl)-1-phenyl-1H-pyrazol-4-yl]methyl}-2-oxo-1-oxa-3,8-diazaspiro[4.5]dec-3-yl)benzoic acid, TFA salt]",4.87 nM
8,"CC(C)n1nc(CN2CCC3(CC2)CN(c2ccc(C(=O)O)cc2)C(=O)O3)c2ccc(C#N)cc21 [Example 6-9, 4-(8-{[6-Cyano-1-(propan-2-yl)-1H-indazol-3-yl]methyl}-2-oxo-1-oxa-3,8-diazaspiro[4.5]dec-3-yl)benzoic acid, TFA salt]",121 nM
9,"Cc1cc(N2CC3(CCN(Cc4cn(C(C)(C)C)nc4-c4cc(F)c(Cl)cc4F)CC3)OC2=O)ccc1C(=O)O [Example 1-11, 4-(8-{[1-tert-Butyl-3-(4-chloro-2,5-difluorophenyl)-1H-pyrazol-4-yl]methyl}-2-oxo-1-oxa-3,8-diazaspiro[4.5]dec-3-yl)-2-methylbenzoic acid, TFA salt]",6.24 nM
10,"CC(C)(C)n1cc(CN2CCC3(CC2)CN(c2ccc(C(=O)O)cc2)C(=O)O3)c(-c2ccc(F)c(F)c2F)n1 [Example 1-1, 4-(8-{[1-tert-Butyl-3-(2,3,4-trifluorophenyl)-1H-pyrazol-4-yl]methyl}-2-oxo-1-oxa-3,8-diazaspiro[4.5]dec-3-yl)benzoic acid, TFA salt]",2.23 nM
11,"CC(C)(C)c1nn(-c2ccc(F)cc2)cc1CN1CCC2(CC1)CN(c1ccc(C(=O)O)cc1)C(=O)O2 [Example 1-35, 4-(8-{[3-tert-Butyl-1-(4-fluorophenyl)-1H-pyrazol-4-yl]methyl}-2-oxo-1-oxa-3,8-diazaspiro[4.5]dec-3-yl)benzoic acid, TFA salt]",36.2 nM
12,"CC(C)(C)n1cc(CN2CCC3(CC2)CN(c2ccc(C(=O)O)c(F)c2)C(=O)O3)c(-c2ccc(F)c(F)c2F)n1 [Example 1-42, 4-(8-{[1-tert-Butyl-3-(2,3,4-trifluorophenyl)-1H-pyrazol-4-yl]methyl}-2-oxo-1-oxa-3,8-diazaspiro[4.5]dec-3-yl)-2-fluorobenzoic acid, TFA salt]",4.68 nM

# Now those with a lower IC50, led by results:
row,IC50,SMILES
1,1.95 nM,"CC(C)(C)n1cc(CN2CCC3(CC2)CN(c2ccc(C(=O)O)cc2)C(=O)O3)c(-c2ccc(F)cc2F)n1 [Example 1-30, 4-(8-{[1-tert-Butyl-3-(2,4-difluorophenyl)-1H-pyrazol-4-yl]methyl}-2-oxo-1-oxa-3,8-diazaspiro[4.5]dec-3-yl)benzoic acid, TFA salt]"
2,1.06 nM,"CCCn1cc(CN2CCC3(CC2)CN(c2ccc(C(=O)O)cc2)C(=O)O3)c2ccc(OC)cc21 [Example 6-20, 4-{8-[(6-Methoxy-1-propyl-1H-indol-3-yl)methyl]-2-oxo-1-oxa-3,8-diazaspiro[4.5]dec-3-yl}benzoic acid, TFA salt]"
3,0.941 nM,"CCOc1cc(CN2CCC3(CC2)CN(c2ccc(C(=O)O)cn2)C(=O)O3)cc(OCC)c1-c1ccc(F)cc1 [Example 3-11, 6-{8-[(2,6-Diethoxy-4′-fluorobiphenyl-4-yl)methyl]-2-oxo-1-oxa-3,8-diazaspiro[4.5]dec-3-yl}pyridine-3-carboxylic acid, TFA salt]"
4,0.705 nM,"COc1ccc(-c2nc(C(C)(C)C)sc2CN2CCC3(CC2)CN(c2ccc(C(=O)O)cc2)C(=O)O3)cc1 [Example 6-29, 4-(8-{[2-tert-Butyl-4-(4-methoxyphenyl)-1,3-thiazol-5-yl]methyl}-2-oxo-1-oxa-3,8-diazaspiro[4.5]dec-3-yl)benzoic acid, TFA salt]"
5,0.437 nM,"CCOc1cc(CN2CCC3(CC2)CN(c2ccc(C(=O)O)cc2F)C(=O)O3)cc(OCC)c1-c1ccc(F)cc1 [Example 3-21, 4-{8-[(2,6-Diethoxy-4′-fluorobiphenyl-4-yl)methyl]-2-oxo-1-oxa-3,8-diazaspiro[4.5]dec-3-yl}-3-fluorobenzoic acid, TFA salt]"
6,0.395 nM,"CCOc1cc(CN2CCC3(CC2)CN(c2ccc(C(=O)O)cc2)C(=O)O3)c(-n2cc(C)cn2)cc1C [Example 4-28, 4-{8-[5-Ethoxy-4-methyl-2-(4-methyl-1H-pyrazol-1-yl)benzyl]-2-oxo-1-oxa-3,8-diazaspiro[4.5]dec-3-yl}benzoic acid, TFA salt]"
7,0.188 nM,"CCOc1cc(CN2CCC3(CC2)CN(c2ccc(C(=O)O)c(C)c2)C(=O)O3)c(-c2ccc(F)c(F)c2F)cc1C [Example 4-12, 4-{8-[(4-Ethoxy-2′,3′,4′-trifluoro-5-methylbiphenyl-2-yl)methyl]-2-oxo-1-oxa-3,8-diazaspiro[4.5]dec-3-yl}-2-methylbenzoic acid, TFA salt]"
8,0.172 nM,"COc1cc(CN2CCC3(CC2)CN(c2ccc(C(=O)O)cc2)C(=O)O3)cc2c(OC)cccc12 [Example 5-6, 4-{8-[(4,8-Dimethoxynaphthalen-2-yl)methyl]-2-oxo-1-oxa-3,8-diazaspiro[4.5]dec-3-yl}benzoic acid, TFA salt]"
9,0.152 nM,"CCOc1cc(CN2CCC3(CC2)CN(c2ccc(C(=O)O)cc2)C(=O)O3)c(-c2cc(F)c(F)cc2F)cc1C [Example 4-11, 4-{8-[(4-Ethoxy-2′,4′,5′-trifluoro-5-methylbiphenyl-2-yl)methyl]-2-oxo-1-oxa-3,8-diazaspiro[4.5]dec-3-yl}benzoic acid, TFA salt]"
